Results as given in patent US20230287051A1, “INHIBITORS OF COMPLEMENT FACTOR C3 AND THEIR MEDICAL USES” (ZP SPV 3 K/S, priority 2020, published 2023).
Numbered stars: 1 amine (or outer) side, 2 acyl side, 3 side chain; on linkers, the order of the positions; unused ones are H or OH. Bridge positions count the residues as written; N and C are the ends. Square brackets hold non-standard residues; d marks the D form. Side chains are listed from the residue outwards. Peptide text beside a SMILES is read from it. * marks the point of attachment. Trp(1-Me) = Cn1cc(C[C@H](N)C(=O)O)c2ccccc21; C18 diacid = O=C(O)CCCCCCCCCCCCCCCCC(=O)*; γGlu = O=C(O)[C@H](CCC(=O)[*:2])N[*:1]; AEEA = NCCOCCOCC(=O)O; CH2 = C([*:1])[*:2]; Sar = CNCC(=O)O

Columns and labels:
[1] = test system: classical complement pathway; experiment: In vitro haemolysis assay (inhibition of classical complement pathway); type: cell-based; conditions: human serum, sensitized sheep RBC, 30 minutes at 37° C., absorbance at 405 nm, n=>2; read-out: IC50, inhibition of hemolysis
Summary of the method: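 Compounds in 9-point serial dilution in Tris/casein buffer pH 7.4 (Ca2+/Mg2+) preincubated 15 min at room temperature with diluted human serum (dilution giving 70-90% maximal haemolysis), then antibody-sensitized sheep RBCs added, 30 min at 37° C. EDTA stop; supernatant haemoglobin read at 405 nm. IC50 from 4PL fit, normalized to controls, n≥2.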

Human C3 = target: T1, Human C3 (Homo sapiens, UniProt P01024); experiment: Affinity measurement by surface plasmon resonance with immobilized C3; conditions: SPR, immobilized human C3, 25° C., 1:1 Langmuir binding model, n=>2
T1 construct: purchased Complement tech A113c
Experimental: Surface plasmon resonance (SPR) was used to characterize peptides with respect to their binding affinity (Kd) for C3.
For interaction experiments, a multi-cycle experiment approach was used and performed using a BiacoreX100™ instrument (GE Healthcare) at 25° C. Peptides were injected in increasing concentration series (5 different concentrations and buffer reference) for 180 seconds at a flow rate of 30 μL/min in a buffer consisting of 50 mM Tris buffer at pH 7.4, with 150 mM NaCl and 0.05% Tween20. This was followed by a dissociation period for 10 min. The C3 surface was regenerated between runs by two consecutive injections of 3 M MgCl2 each for 45 seconds.
Sensorgrams were double-referenced (reference surface, blanks) prior to analysis of the kinetic profiles by globally fitting data to a 1:1 Langmuir binding model to obtain association and dissociation rates for calculation of the equilibrium dissociation constant Kd (Table 3). Each peptide was tested at in at least 2 independent experiments.

Kd (Human C3)	Compound	IC50 [1]
15 nM	CC[C@H](C)[C@@H]1NC(=O)[C@@H](NC(=O)[C@H](Cc2ccccc2)NC(=O)[C@H](C)NC(=O)[C@H](CO)NC(=O)[C@H](CCC(N)=O)NC(=O)CNC(C)=O)CSCSC[C@@H](C(=O)N[C@H](C(=O)N[C@@H](CCC(=O)O)C(=O)NCC(=O)N[C@@H](CCC(=O)O)C(=O)NCCOCCOCC(=O)NCCOCCOCC(=O)N[C@@H](CCCCNC(=O)CC[C@H](NC(=O)CNC(=O)CC[C@H](NC(=O)CCCCCCCCCCCCCCCCC(=O)O)C(=O)O)C(=O)O)C(N)=O)[C@@H](C)O)NC(=O)[C@H](CCCNC(=N)N)NC(=O)[C@H](Cc2c[nH]cn2)NC(=O)[C@H](CCC(=O)O)NC(=O)CN(C)C(=O)[C@H](Cc2c[nH]c3ccccc23)NC(=O)[C@H](CC(=O)O)NC(=O)[C@H](CCC(N)=O)NC(=O)[C@H](Cc2cn(C)c3ccccc23)NC1=O [Compound 28, Ac-GQSAF[C(1)]I[1-Me-Trp]QDW[Sar]EHR[C(1)]TEGE[Peg3][Peg3]-K([17-Carboxy-heptadecanoyl][yGlu]G[yGlu])-NH2] (Ac-GQSAFCI[Trp(1-Me)]QDW[Sar]EHRCTEGE[AEEA][AEEA]K([γGlu-Gly-γGlu-C18 diacid])-NH2; linker 6-16 via CH2)	< 100 nM
15 nM	CC[C@H](C)[C@@H]1NC(=O)[C@@H](NC(=O)[C@H](Cc2ccccc2)NC(=O)[C@@H](NC(=O)CNC(=O)[C@H](CO)NC(=O)[C@@H](N)CCC(=O)O)C(C)C)CSCSC[C@@H](C(=O)N[C@H](C(=O)N[C@@H](CCC(=O)O)C(=O)NCC(=O)N[C@@H](CCC(=O)O)C(=O)NCCOCCOCC(=O)NCCOCCOCC(=O)N[C@@H](CCCCNC(=O)CC[C@H](NC(=O)CNC(=O)CC[C@H](NC(=O)CCCCCCCCCCCCCCCCC(=O)O)C(=O)O)C(=O)O)C(N)=O)[C@@H](C)O)NC(=O)[C@H](CCCNC(=N)N)NC(=O)[C@H](Cc2c[nH]cn2)NC(=O)[C@H](CCC(=O)O)NC(=O)CN(C)C(=O)[C@H](Cc2c[nH]c3ccccc23)NC(=O)[C@H](CC(=O)O)NC(=O)[C@H](CCC(N)=O)NC(=O)[C@H](Cc2cn(C)c3ccccc23)NC1=O [Compound 29, H-ESGVF[C(1)]I[1-Me-Trp]QDW[Sar]EHR[C(1)]TEGE[Peg3][Peg3]-K([17-Carboxy-heptadecanoyl][yGlu]G[yGlu])-NH2] (H-ESGVFCI[Trp(1-Me)]QDW[Sar]EHRCTEGE[AEEA][AEEA]K([γGlu-Gly-γGlu-C18 diacid])-NH2; linker 6-16 via CH2)	< 100 nM
